Tested on: B. burgdorferi B31
Assay: RNA-Seq gene expression profile of B. burgdorferi persisters that survived antibiotic treatment, compared with drug free control
Assay type: cell-based, Borrelia burgdorferi
Procedure: RNA Sequencing (RNA-Seq) was performed to determine the gene expression profile of B. burgdorferi persisters that survived antibiotic treatment using next generation sequencing to shed light on the mechanisms of B. burgdorferi persistence. B. burgdorferi B31 cultures were grown for 5 days to 1×10^7 spirochetes/ml in BSK-H medium followed by treatment with 50 μg/ml doxycycline or 50 μg/ml amoxicillin for 6 days. Triplicate biological samples were used for each group. The total RNA was extracted and ribosomal RNA was removed prior to preparation of cDNA libraries for Illumina sequencing. […] The RNA-Seq data was analyzed by BLAST analysis and mapped to KEGG pathways.

SMILES: CC1(C)S[C@@H]2[C@H](NC(=O)[C@H](N)c3ccc(O)cc3)C(=O)N2[C@H]1C(=O)O [Amo]
- Expression predicted RNA antisense: BB_0034: 64256
- Expression predicted RNA antisense: BB_0147: 71642
- Expression predicted RNA antisense: BB_0269: 39823
- Expression predicted RNA antisense: BB_0465: 29768
- Expression predicted RNA antisense: BB_0559: 39487
- Expression predicted RNA antisense: BB_0631: 35398
- Expression predicted RNA antisense: BB_A59: 70553
- Expression predicted RNA antisense: BB_B22: 44966
- Expression predicted RNA antisense: fusA: 45574
- Expression predicted RNA antisense: lp6.6: 140114
- Expression predicted RNA antisense: napA: 19231
- Expression predicted RNA antisense: ospA ospB: 102443
- Expression predicted RNA antisense: rpsM: 33897
- Expression predicted RNA antisense: tRNA-Gln-1 BB_0786: 25214
- Expression 5S_rrlB BB_r03 (5S ribosomal RNA): 0
- Expression lp6.6 BB_A62 (6.6 kDa lipoprotein): 115
- Expression 23S_rrlA BB_r02 (23S ribosomal RNA): 3005
- Expression 23S_rrlB BB_r04 (23S ribosomal RNA): 3039
- Expression rpsH BB_0492 (30S ribosomal protein S8): 14
- Expression rpsI BB_0338 (30S ribosomal protein S9): 66
- Expression rpsQ BB_0487 (30S ribosomal protein S17): 2
- Expression rpsU BB_0256 (30S ribosomal protein S21): 34
- Expression rplI BB_0112 (50S ribosomal protein L9): 23
- Expression rplM BB_0339 (50S ribosomal protein L13): 21
- Expression rplQ BB_0503 (50S ribosomal protein L17): 17
- Expression rplX BB_0489 (50S ribosomal protein L24): 6
- Expression rpmC BB_0486 (50S ribosomal protein L29): 0
- Expression rpmE BB_0229 (50S ribosomal protein L31): 52
- Expression rpmF BB_0703 (50S ribosomal protein L32): 28
- Expression rpmJ BB_0499 (50S ribosomal protein L36): 14
- Expression tRNA-Ala-1 BB_t05 (Ala tRNA): 0
- Expression BB_t21 (Arg tRNA): 0
- Expression tRNA-Asn-1 BB_t11 (Asn tRNA): 26
- Expression tRNA-Asp-1 BB_t12 (Asp tRNA): 0
- Expression bdrH BB_R27 (BdrH): 15
- Expression bdrK BB_M34 (BdrK): 0
- Expression bdrR BB_N27 (BdrR protein): 0
- Expression erpK BB_M38 (ErpK protein): 0
- Expression thyX BB_A76 (FAD-dependent thymidylate synthase): 3
- Expression tRNA-Gln-1 BB_t18 (Gln tRNA): 0
- Expression BB_t25 (Gly tRNA): 1187
- Expression BB_0087 (L-lactate dehydrogenase): 48
- Expression tRNA-Leu-4 BB_t17 (Leu tRNA): 15
- Expression BB_t23 (Lys tRNA): 0
- Expression BB_0262 (M23 peptidase domain-containing protein): 145
- Expression BB_t28 (Met tRNA): 0
- Expression BB_A64 (P35 antigen): 9453
- Expression BB_P32 (PF-32 protein): 15
- Expression BB_M33 (PF-49 protein): 0
- Expression BB_P33 (PF-49 protein): 0
- Expression BB_0559 (PTS system glucose-specific transporter subunit IIA): 177
- Expression BB_t30 (Phe tRNA): 0
- Expression BB_F03 (RepU): 0
- Expression BB_t20 (Ser tRNA): 7
- Expression tRNA-Ser-3 BB_t06 (Ser tRNA): 0
- Expression smpB BB_0033 (SsrA-binding protein): 176
- Expression BB_t33 (Thr tRNA): 11
- Expression murB BB_0598 (UDP-N-acetylenolpyruvoylglucosamine reductase): 249
- Expression BB_0090 (V-type ATP synthase subunit K): 1
- Expression BB_H33 (adenine deaminase): 2
- Expression BB_H32 (antigen P35): 5
- Expression lnt BB_0237 (apolipoprotein N-acyltransferase): 2060
- Expression BB_0582 (carboxypeptidase): 96
- Expression cheR BB_0040 (chemotaxis protein methyltransferase): 233
- Expression BB_H06 (complement regulator-acquiring surface protein): 10
- Expression cdd BB_0618 (cytidine deaminase): 267
- Expression flgB BB_0294 (flagellar basal body rod protein FlgB): 5
- Expression fliL BB_0279 (flagellar basal body-associated protein FliL): 6
- Expression BB_0287 (flagellar protein FlbA): 0
- Expression BB_0147 (flagellin): 73
- Expression BB_0138 (gene BB_0138, hypothetical protein): 0
- Expression BB_0305 (gene BB_0305, hypothetical protein): 0
- Expression BB_0321 (gene BB_0321, hypothetical protein): 4
- Expression BB_A21 (gene BB_A21, PF-49 protein): 1
- Expression BB_E09 (gene BB_E09, protein p23): 0
- Expression BB_E16 (gene BB_E16, hypothetical protein): 0
- Expression BB_E17 (gene BB_E17, hypothetical protein): 0
- Expression BB_E18 (gene BB_E18, hypothetical protein): 0
- Expression BB_E19 (gene BB_E19, hypothetical protein): 0
- Expression BB_E20 (gene BB_E20, hypothetical protein): 0
- Expression BB_E21 (gene BB_E21, hypothetical protein): 0
- Expression BB_E22 (gene BB_E22, pyrazinamidase/nicotinamidase PncA): 0
- Expression BB_E31 (gene BB_E31, antigen, P35, putative): 0
- Expression BB_F01 (gene BB_F01, hypothetical protein): 0
- Expression BB_F02 (gene BB_F02, hypothetical protein): 0
- Expression BB_F06 (gene BB_F06, hypothetical protein): 0
- Expression BB_F08 (gene BB_F08, hypothetical protein): 0
- Expression BB_F14 (gene BB_F14, hypothetical protein): 0
- Expression BB_F17 (gene BB_F17, putative transmembrane protein): 0
- Expression BB_F20 (gene BB_F20, BBF20): 0
- Expression BB_F23 (gene BB_F23, PF49): 0
- Expression BB_F24 (gene BB_F24, PF32): 0
- Expression BB_F25 (gene BB_F25, hypothetical protein): 0
- Expression BB_F26 (gene BB_F26, hypothetical protein): 0
- Expression BB_F0034 (gene BB_F0034, hypothetical protein): 0
- Expression BB_F0039 (gene BB_F0039, hypothetical protein): 0
- Expression BB_F0040 (gene BB_F0040, hypothetical protein): 0
- Expression BB_F0041 (gene BB_F0041, outer surface protein VlsE1): 0
- Expression BB_I01 (gene BB_I01, hypothetical protein): 0
- Expression BB_I02 (gene BB_I02, hypothetical protein): 0
- Expression BB_I06 (gene BB_I06, MTA/SAH nucleosidase): 0
- Expression BB_I12 (gene BB_I12, hypothetical protein): 0
- Expression BB_I15 (gene BB_I15, virulence associated lipoprotein): 0
- Expression BB_I18 (gene BB_I18, hypothetical protein): 0
- Expression BB_I19 (gene BB_I19, hypothetical protein): 0
- Expression BB_I20 (gene BB_I20, hypothetical protein): 0
- Expression BB_I21 (gene BB_I21, PF-32 protein): 0
- Expression BB_I22 (gene BB_I22, PF-49 protein): 0
- Expression BB_I26 (gene BB_I26, multidrug-efflux transporter): 0
- Expression BB_I29 (gene BB_I29, virulence associated lipoprotein): 0
- Expression BB_I34 (gene BB_I34, virulence associated lipoprotein): 0
- Expression BB_I36 (gene BB_I36, antigen P35): 0
- Expression BB_I38 (gene BB_I38, surface antigen): 0
- Expression BB_I41 (gene BB_I41, hypothetical protein): 0
- Expression BB_I42 (gene BB_I42, outer membrane protein): 0
- Expression BB_J42 (gene BB_J42, hypothetical protein): 0
- Expression BB_J0058 (gene BB_J0058, hypothetical protein): 0
- Expression BB_K01 (gene BB_K01, lipoprotein): 0
- Expression BB_K07 (gene BB_K07, lipoprotein): 0
- Expression BB_K09 (gene BB_K09, hypothetical protein): 0
- Expression BB_K13 (gene BB_K13, hypothetical protein): 0
- Expression BB_K15 (gene BB_K15, antigen P35): 0
- Expression BB_K17 (gene BB_K17, adenine deaminase): 0
- Expression BB_K19 (gene BB_K19, lipoprotein): 0
- Expression BB_K21 (gene BB_K21, PF-32 protein): 0
- Expression BB_K22 (gene BB_K22, hypothetical protein): 0
- Expression BB_K23 (gene BB_K23, hypothetical protein): 0
- Expression BB_K24 (gene BB_K24, PF-49 protein): 0
- Expression BB_K32 (gene BB_K32, fibronectin-binding protein): 0
- Expression BB_K33 (gene BB_K33, hypothetical protein): 0
- Expression BB_K34 (gene BB_K34, hypothetical protein): 0
- Expression BB_K35 (gene BB_K35, hypothetical protein): 0
- Expression BB_K40 (gene BB_K40, hypothetical protein): 0
- Expression BB_K41 (gene BB_K41, hypothetical protein): 0
- Expression BB_K42 (gene BB_K42, hypothetical protein): 0
- Expression BB_K45 (gene BB_K45, immunogenic protein P37): 0
- Expression BB_K47 (gene BB_K47, hypothetical protein): 0
- Expression BB_K48 (gene BB_K48, immunogenic protein P37): 0
- Expression BB_K49 (gene BB_K49, hypothetical protein): 0
- Expression BB_K50 (gene BB_K50, immunogenic protein P37): 0
- Expression BB_K52 (gene BB_K52, lipoprotein): 0
- Expression BB_K53 (gene BB_K53, outer membrane protein): 0
- Expression BB_K54 (gene BB_K54, hypothetical protein): 0
- Expression BB_K0058 (gene BB_K0058, hypothetical protein): 0
- Expression BB_K0059 (gene BB_K0059, hypothetical protein): 0
- Expression BB_L15 (gene BB_L15, hypothetical protein): 0
- Expression BB_L16 (gene BB_L16, hypothetical protein): 0
- Expression BB_L17 (gene BB_L17, hypothetical protein): 0
- Expression BB_L18 (gene BB_L18, hypothetical protein): 0
- Expression BB_L21 (gene BB_L21, hypothetical protein): 0
- Expression BB_L22 (gene BB_L22, hypothetical protein): 0
- Expression BB_L29 (gene BB_L29, hypothetical protein): 0
- Expression BB_L30 (gene BB_L30, hypothetical protein): 1
- Expression BB_L31 (gene BB_L31, hypothetical protein): 0
- Expression BB_L32 (gene BB_L32, PF-32 protein): 0
- Expression BB_N08 (gene BB_N08, hypothetical protein): 0
- Expression BB_N33 (gene BB_N33, PF-49 protein): 1
- Expression BB_Q03 (gene BB_Q03, outer membrane protein): 0
- Expression BB_Q05 (gene BB_Q05, antigen, P35): 0
- Expression BB_Q07 (gene BB_Q07, plasmid partition protein): 0
- Expression BB_Q08 (gene BB_Q08, PF-32 protein): 0
- Expression BB_Q09 (gene BB_Q09, hypothetical protein): 0
- Expression BB_Q40 (gene BB_Q40, PF-32 protein): 0
- Expression BB_Q48 (gene BB_Q48, hypothetical protein): 0
- Expression BB_Q49 (gene BB_Q49, hypothetical protein): 0
- Expression BB_Q67 (gene BB_Q67, adenine specific DNA methyltransferase): 0
- Expression BB_Q89 (gene BB_Q89, lipoprotein): 5
- Expression BB_T01 (gene BB_T01, hypothetical protein): 0
- Expression BB_T02 (gene BB_T02, hypothetical protein): 0
- Expression BB_T03 (gene BB_T03, hypothetical protein): 0
- Expression BB_T04 (gene BB_T04, hypothetical protein): 0
- Expression BB_T06 (gene BB_T06, Sua5/YciO/YrdC/YwlC family protein): 0
- Expression BB_T07 (gene BB_T07, outer membrane protein): 0
- Expression BB_U01 (gene BB_U01, hypothetical protein): 0
- Expression BB_U02 (gene BB_U02, hypothetical protein): 2
- Expression BB_U04 (gene BB_U04, protein BBC01): 0
